# Laboratory results from US20250115926A1, “DEREGULATED DHS AND TYRA ENZYMES OF GRASSES ENABLE EFFICIENT PRODUCTION OF BOTH TYROSINE AND PHENYLALANINE” (Wisconsin Alumni Research Foundation, priority 2023, published 2025).
# Values joined by “and” are separate entries in the source; they are usually repeats but may differ in a detail not shown here. Equal entries are not always repeated.
# Assays:
# [1] = target: T1, Brachypodium distachyon BdTyrA1, SEQ ID NO: 33, recombinant (Brachypodium distachyon, UniProt A0A2K2DMR9); test: TyrA arogenate dehydrogenase kinetics and tyrosine inhibition (340 nm); assay type: biochemical
# T1 construct: from genomic DNA
# T1 sequence (A0A2K2DMR9 539-925): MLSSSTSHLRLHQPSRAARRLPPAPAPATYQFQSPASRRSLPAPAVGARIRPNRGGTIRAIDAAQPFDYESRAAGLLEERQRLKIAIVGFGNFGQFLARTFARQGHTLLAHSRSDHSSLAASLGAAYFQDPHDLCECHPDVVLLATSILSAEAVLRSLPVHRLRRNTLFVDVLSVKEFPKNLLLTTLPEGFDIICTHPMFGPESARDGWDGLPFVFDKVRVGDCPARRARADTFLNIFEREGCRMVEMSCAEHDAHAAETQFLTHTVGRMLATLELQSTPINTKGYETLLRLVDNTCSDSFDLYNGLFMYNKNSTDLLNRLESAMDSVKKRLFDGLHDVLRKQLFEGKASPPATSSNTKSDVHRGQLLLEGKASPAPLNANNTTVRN
# From the text: (§1) Next, to study the biochemical properties of grass TyrA enzymes, we generated and characterized recombinant purified TyrA proteins from Brachypodium (BdTyrA) and Sorghum (SbTyrA), two distantly related grass species^43, 44. Whereas TyrA enzymes from dicot plants are generally NADP^+-dependent arogenate dehydrogenases^20, 39, 45, except for NADP^+-prephenate dehydrogenases in the legume family^40, 46, previous reports on the substrate preference of grass TyrA enzymes are inconclusive^17, 19. […] NAD^+-prephenate dehydrogenase activity was absent in all cases, ruling out a significant contamination of the enzyme preparations with the TyrA enzyme from E. coli^47.48.
# [2] = target: T2, Brachypodium distachyon BdTyrA2, SEQ ID NO: 35, recombinant (Brachypodium distachyon, UniProt I1GWX1); test: as above; assay type: biochemical
# T2 sequence (I1GWX1 55-365): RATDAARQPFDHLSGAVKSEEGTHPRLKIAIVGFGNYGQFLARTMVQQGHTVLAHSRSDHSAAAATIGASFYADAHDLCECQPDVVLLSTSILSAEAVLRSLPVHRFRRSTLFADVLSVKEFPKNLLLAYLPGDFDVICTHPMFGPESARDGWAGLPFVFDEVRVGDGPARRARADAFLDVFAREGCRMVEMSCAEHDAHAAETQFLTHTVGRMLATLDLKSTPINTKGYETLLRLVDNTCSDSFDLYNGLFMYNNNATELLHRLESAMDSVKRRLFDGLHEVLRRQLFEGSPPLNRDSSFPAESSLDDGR
# From the text: as §1
# [3] = target: T3, Sorghum bicolor SbTyrA1, SEQ ID NO: 39, recombinant (Sorghum bicolor, UniProt A0A194YLK4); test: as above; assay type: biochemical
# T3 construct: from genomic DNA
# T3 sequence (A0A194YLK4 475-836): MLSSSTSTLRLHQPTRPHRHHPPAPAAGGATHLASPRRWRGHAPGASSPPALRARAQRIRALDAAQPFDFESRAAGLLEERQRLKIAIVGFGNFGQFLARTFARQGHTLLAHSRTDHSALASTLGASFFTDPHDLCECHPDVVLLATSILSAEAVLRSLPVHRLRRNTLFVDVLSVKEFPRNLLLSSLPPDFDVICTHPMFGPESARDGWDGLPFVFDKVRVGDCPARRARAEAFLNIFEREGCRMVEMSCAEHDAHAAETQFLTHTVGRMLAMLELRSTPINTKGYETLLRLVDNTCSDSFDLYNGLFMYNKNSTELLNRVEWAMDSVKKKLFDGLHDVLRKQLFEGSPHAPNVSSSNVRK
# From the text: as §1
# [4] = target: T4, Sorghum bicolor SbTyrA2, SEQ ID NO: 41, recombinant (Sorghum bicolor, UniProt C5Z9D2); test: as above; assay type: biochemical
# T4 construct: from genomic DNA
# T4 sequence (C5Z9D2 53-389): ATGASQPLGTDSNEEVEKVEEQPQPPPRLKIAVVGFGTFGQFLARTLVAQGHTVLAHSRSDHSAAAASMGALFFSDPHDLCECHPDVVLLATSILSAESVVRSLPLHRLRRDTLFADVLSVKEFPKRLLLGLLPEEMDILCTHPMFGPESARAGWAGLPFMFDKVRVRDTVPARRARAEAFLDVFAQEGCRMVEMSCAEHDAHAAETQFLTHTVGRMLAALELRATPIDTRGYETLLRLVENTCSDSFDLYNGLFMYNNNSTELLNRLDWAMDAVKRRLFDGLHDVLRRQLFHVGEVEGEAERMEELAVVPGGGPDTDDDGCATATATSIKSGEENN
# From the text: as §1
# [5] = target: T5, Sorghum bicolor SbTyrAnc (non-canonical TyrA), SEQ ID NO: 43, recombinant (Sorghum bicolor, UniProt C5Z447); test: as above; assay type: biochemical
# T5 construct: from cDNA
# T5 sequence (C5Z447 56-382): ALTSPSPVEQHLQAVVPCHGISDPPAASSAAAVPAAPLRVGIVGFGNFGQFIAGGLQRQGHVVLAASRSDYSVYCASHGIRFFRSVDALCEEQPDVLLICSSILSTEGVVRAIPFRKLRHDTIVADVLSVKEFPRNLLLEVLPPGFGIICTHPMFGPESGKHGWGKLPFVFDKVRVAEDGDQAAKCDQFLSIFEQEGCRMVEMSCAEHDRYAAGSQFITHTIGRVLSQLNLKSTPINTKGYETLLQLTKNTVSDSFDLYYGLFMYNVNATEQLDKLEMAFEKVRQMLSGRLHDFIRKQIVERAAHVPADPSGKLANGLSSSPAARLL
# From the text: as §1
# [6] = target: Brachypodium distachyon BdDHS1a, SEQ ID NO: 1, recombinant (Brachypodium distachyon, UniProt I1GSB3); test: DHS activity: kinetics and effector inhibition; details: read-out: inhibition at 0.5 mM
# From the text: To examine their functional properties, the recombinant DHS enzymes of Brachypodium were produced and characterized in vitro.
# (§2) As recent studies have shown that plant DHS enzymes are feedback-inhibited by multiple effector molecules^15, 16, we tested the effect of AAAs and another 14 related metabolites, including various intermediates of the shikimate pathway and the pathways downstream of AAAs, on Brachypodium DHS enzymes.
# (§3) The DHS assay for UHPLC-MS quantification was set up using the same settings as described in the previous paragraph for the UV-based DHS assay, which guaranteed at least 10 minutes of reaction linearity. After a 10-minute incubation, 20 μL of the reactions (out of a total volume of 50 μL) were mixed into 80 μL of methanol, vortexed and transferred to vials for injection. Analysis of DAHP by UHPLC-MS was conducted using the same chromatographic settings as described for the UHPLC-MS analysis of soluble metabolites and compared with an authentic DAHP standard (Sta. Cruz biotechnology, cat. no. sc-216432).
# [7] = test system: grass DHS enzymes; test: DHS activity: effector inhibition; assay type: biochemical; details: 0.5 mM (FIGS. 4, 15, 17)
# Experimental: as §2, §3
# [8] = IC50 (tyrosine), 0.5 mM arogenate, 1 mM NADP^+
# Chain of Brachypodium distachyon BdDHS1a, SEQ ID NO: 1, recombinant (I1GSB3 46-537): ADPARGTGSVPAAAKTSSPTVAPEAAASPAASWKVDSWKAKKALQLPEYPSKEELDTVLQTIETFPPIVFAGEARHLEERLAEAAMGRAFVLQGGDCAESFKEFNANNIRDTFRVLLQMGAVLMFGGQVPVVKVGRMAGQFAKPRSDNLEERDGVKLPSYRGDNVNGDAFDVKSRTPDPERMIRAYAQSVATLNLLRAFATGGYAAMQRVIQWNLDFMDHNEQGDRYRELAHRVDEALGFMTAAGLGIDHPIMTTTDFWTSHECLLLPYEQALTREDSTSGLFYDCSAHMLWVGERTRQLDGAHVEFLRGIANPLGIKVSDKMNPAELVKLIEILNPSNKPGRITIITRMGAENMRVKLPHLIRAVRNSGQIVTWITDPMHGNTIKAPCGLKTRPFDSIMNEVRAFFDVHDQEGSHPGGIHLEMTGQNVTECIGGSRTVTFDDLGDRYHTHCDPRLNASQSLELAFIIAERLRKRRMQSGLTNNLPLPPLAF
structure (smiles),measurement,setting,value
N[C@@H](Cc1ccc(O)cc1)C(=O)O [tyrosine],Ki,[1],46 ± 3 µM
same,activity at 200 μM of tyrosine,[1]; 200 μM tyrosine,fully inactive
same,mode of feedback inhibition by tyrosine,[1]; FIG. 12,competitive
same,IC50,[1]; [8],66 ± 2 µM
same,activity at 200 μM of tyrosine,[2]; 200 μM tyrosine,fully inactive
same,IC50,[2]; [8],~20 µM and 20 µM
same,Ki,"[2]; calculated from Km and IC50, competitive inhibition model",8 ± 2 µM
same,IC50,[3],71 µM
same,Ki,[3],53 ± 10 µM
same,IC50,[4],47 ± 23 µM
same,Ki,[4],36 ± 13 µM
same,IC50,[5],406 ± 85 µM
same,Ki,[5],137 ± 44 µM
same,inhibition at 500 µM,[6],~25%
same,effect on grass DHS at 0.5 mM,[7],little effect
